The values below come from publication PMC4389225, “Triaminopyrimidine is a fast-killing and long-acting antimalarial clinical candidate” (Nature Communications, 2015).

For data set [1], the system named is asexual blood stage of Pf. Put plainly: Pf asexual blood stage potency (Pf IC50). In kind it is cell-based, Plasmodium falciparum. The conditions noted are these: for IC50: Plasmodium falciparum. From the text:
The TAPs series emerged from a high-throughput screen (HTS) of 500,000 compounds from the AstraZeneca corporate library against the asexual blood stage of Pf using a high-content image-based approach. The procedure for synthesis of compounds 1-6, 10, 11 using a scheme similar to Fig. 1 is provided in Supplementary Note 1. The initial hit provided multiple diversification points for a robust lead optimization campaign. […] Compounds with 2-pyridyl modification at the 2-amino position of pyrimidine core improved potency and solubility at the cost of potent activity against hERG and acetylcholine esterase (AChE; compounds 3-6; Table 1). […] The observed hERG and AChE selectivity improvement with 7 could be attributed to the polar nature of the pyrazole group and its role in reducing the pKa of the core pyrimidine ring. […] To assess the potential for cross-resistance, representative TAPs were screened against a panel of clinical isolates and in vitro-generated mutant strains displaying varying mechanisms of resistance to antimalarial agents currently in use and under development, respectively, (Supplementary Tables 1–3).

For the next data set, the target named is T1, hERG (Homo sapiens, UniProt Q12809).
T1 construct: expressed in transfected cells; host or cells: CHO cells
T1 sequence (Q12809 whole entry): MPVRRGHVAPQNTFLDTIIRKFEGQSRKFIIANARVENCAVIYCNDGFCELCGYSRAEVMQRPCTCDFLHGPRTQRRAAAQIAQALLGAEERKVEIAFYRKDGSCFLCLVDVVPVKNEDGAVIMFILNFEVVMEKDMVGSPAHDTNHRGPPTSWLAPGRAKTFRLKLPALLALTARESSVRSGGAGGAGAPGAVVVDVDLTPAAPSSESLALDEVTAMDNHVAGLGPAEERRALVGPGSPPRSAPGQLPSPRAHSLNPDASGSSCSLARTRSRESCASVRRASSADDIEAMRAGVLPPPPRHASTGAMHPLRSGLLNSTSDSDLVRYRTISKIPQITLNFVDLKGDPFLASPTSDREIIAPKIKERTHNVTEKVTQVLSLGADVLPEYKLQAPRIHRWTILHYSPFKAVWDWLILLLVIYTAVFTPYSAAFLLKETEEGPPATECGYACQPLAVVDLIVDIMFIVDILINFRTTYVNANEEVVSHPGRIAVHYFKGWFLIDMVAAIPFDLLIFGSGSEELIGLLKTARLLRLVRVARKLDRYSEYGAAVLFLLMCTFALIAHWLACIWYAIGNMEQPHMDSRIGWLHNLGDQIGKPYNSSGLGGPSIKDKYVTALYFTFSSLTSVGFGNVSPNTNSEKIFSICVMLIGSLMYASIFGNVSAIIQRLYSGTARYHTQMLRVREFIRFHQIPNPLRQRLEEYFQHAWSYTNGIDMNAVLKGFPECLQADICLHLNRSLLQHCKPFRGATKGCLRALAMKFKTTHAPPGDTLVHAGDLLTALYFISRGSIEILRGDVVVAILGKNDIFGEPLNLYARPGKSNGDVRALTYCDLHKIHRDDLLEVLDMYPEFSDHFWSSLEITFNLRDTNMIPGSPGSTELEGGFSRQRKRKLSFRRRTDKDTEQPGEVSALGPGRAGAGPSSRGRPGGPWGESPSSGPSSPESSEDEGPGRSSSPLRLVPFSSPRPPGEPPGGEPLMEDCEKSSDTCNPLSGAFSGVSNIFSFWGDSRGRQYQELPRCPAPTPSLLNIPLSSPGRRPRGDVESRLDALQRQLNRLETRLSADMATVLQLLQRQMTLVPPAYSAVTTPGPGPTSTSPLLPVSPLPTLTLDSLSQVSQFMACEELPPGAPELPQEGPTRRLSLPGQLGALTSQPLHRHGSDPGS
In words: electrophysiology-based hERG assay using IonWorks HT (CHO cells). The class given is cell-based. Conditions: hERG IC50. The method, then:
hERG IC50 was determined in an electrophysiology-based hERG assay using IonWorks HT (CHO cells) as described earlier.
On the technique in general: hERG is a cardiac potassium channel; its block is linked to QT prolongation.

A further data set deals with PfATP4 Cpd 3. In words: [3H]-hypoxanthine incorporation assay, PfATP4 Cpd 3 resistant. In kind it is cell-based. The conditions noted are these: Plasmodium falciparum. The procedure:
(§1) Supplementary Table 3: Compound 9 and 12 retain their activity against Pf strains harbouring mutations to novel antimalarial agents in clinical development. Compound 9 and 12 were tested for their antiplasmodial activity against a panel of Pf strains known to harbour mutations conferring resistance to novel agents under clinical development. Parasite growth inhibition is measured using the [3H]-hypoxanthine incorporation assay. IC50s are established for each strain (n ≥2) and compared to the IC50 of Dd2 (standard pan-resistant […]

Another data set relates to PfATP4 Cpd 2. In words: [3H]-hypoxanthine incorporation assay, PfATP4 Cpd 2 resistant. The conditions noted are these: Plasmodium falciparum. In kind it is cell-based. The method, then: as §1
Another data set relates to Dd2 bc-1 ELQ-300. In words: [3H]-hypoxanthine incorporation assay, Dd2 bc-1 ELQ-300 resistant. In kind it is cell-based, Plasmodium falciparum. The conditions noted are these: Plasmodium falciparum, DD2. The method, then: as §1
The subject of another data set is Dd2. In words: [3H]-hypoxanthine incorporation assay, Dd2. Conditions: Plasmodium falciparum, DD2. The class given is cell-based, Plasmodium falciparum. The procedure: 9 and 12 were tested for their antiplasmodial activity against a panel of Pf strains known to harbour mutations conferring resistance to novel agents under clinical development. Parasite growth inhibition is measured using the [3H]-hypoxanthine incorporation assay. IC50s are established for each strain (n ≥2) and compared to the IC50 of Dd2 (standard pan-resistant

The nature of data set [2]: PK in the blood of infected Pf/SCID mice. The class given is in vivo, mouse. Conditions: for CL/F: SCID, mouse, whole blood. The method, then: Peripheral blood samples (25 μl) were taken at different times (0.25, 0.5, 1, 2, 4, 6, 8 and 23 h), mixed with 25 μl of H2O Mili-Q and immediately frozen on dry ice. The frozen samples were stored at −80 °C until analysis. Vehicle-treated mice experienced the same blood-sampling regimen. Blood samples were processed by liquid–liquid extraction by mixing 10 μl diluted blood with 180 μl AcN:MeOH (80:20; v-v) mixture. Quantitative analysis by Liquid chromatography-tandem mass spectrometry (LC-MS/MS) was performed using UPLC (Waters) and Sciex API4000. The lower limit of quantification in this assay was 0.005 μg ml^−1.

In another data set the test system is Pf3D7^0087/N9. Put plainly: animal or person. The class given is in vivo, Plasmodium falciparum. From the text:
All animal studies were ethically reviewed and carried out in accordance with European Directive 86/609/EEC and the GSK Policy on the Care, Welfare and Treatment of Animals. During this experiment, female mice were used from the batch NSGJ 01/1 (The Jackson Laboratory, USA). The therapeutic efficacy of compound 12 against Pf3D7^0087/N9 was studied using a ‘4-day test’ reported earlier. Briefly, NODscidIL2Rγ^null mice engrafted with human erythrocytes were infected with 20 × 10^6 Pf-infected erythrocytes. Infections were performed by i.v. inoculation. All mice were randomly assigned to their corresponding treatment. The treatment started at day 3 and finished at day 6 after infection. The compound was administered orally as a suspension in 0.5% w/v hydroxypropyl methylcellulose (HPMC) with 0.1% v/v Tween 80, using an oral gavage at a maximum dose volume of 20 ml kg^−1. Vehicle alone was administered in untreated mice. In all cases, parasitemia was assessed in samples from peripheral blood obtained at days 3–7 after infection. A qualitative analysis of the effect of treatment on Pf3D7^0087/N9 was assessed by microscopy and flow cytometry. Fresh samples of peripheral blood from Pf-infected mice were stained with TER-119-Phycoerythrine (marker of murine erythrocytes) and SYTO-16 (nucleic acid dye) and then analysed by flow cytometry (FACS Calibur, BD). Microscopy analysis was performed with Giemsa-stained blood smears from samples taken at days 5 and 7 (48 and 96 h after starting treatment, respectively).
PK-PD model for the metabolite (compound 9) alone. Pharmacokinetic data from the Pf/SCID model was linked to efficacy using the following equation5.
Where P [log (total no. of parasites / mouse)], Kgro (growth rate constant), Pmax (log (maximum no. of parasites / mouse)), Kkill (maximum kill rate constant), H (Hill slope), EC50 (concentration required for achieving half maximal kill rate) and Ce (concentration of the drug in the effect compartment). Percent parasitemia values were converted into total number of parasites in mouse blood assuming […] (9.23 log10) RBCs per mouse. The lower limit of quantitation for % parasitemia was 0.01% or 5.23 log10. Effect compartment was used for modelling the delay observed in efficacy at a lower dose. […]

For another data set, the system named is Pf W2. In words: microbe, parasite or virus in culture. The class given is cell-based. The conditions noted are these: Plasmodium falciparum. From the text:
(§2) tested in duplicate from two independent experiments using a SYBR-Green based assay2.
(§3) (1 picture or pasted object on this page, not shown here)

Another data set deals with Pf NF54. In words: microbe, parasite or virus in culture. In kind it is cell-based. Conditions: Plasmodium falciparum.
From the text: as §2, §3

The subject of another data set is Pf DD2. Put plainly: microbe, parasite or virus in culture. The class given is cell-based. The conditions noted are these: Plasmodium falciparum.
From the text: as §2, §3

For the next data set, the system named is Pf K1. In words: microbe, parasite or virus in culture. In kind it is cell-based. The conditions noted are these: Plasmodium falciparum.
From the text: as §2, §3

The subject of another data set is Pf SB1. In words: microbe, parasite or virus in culture. The class given is cell-based. Conditions: Plasmodium falciparum.
From the text: as §2, §3

In a further data set the test system is Pf 7G8. In words: microbe, parasite or virus in culture. In kind it is cell-based. The conditions noted are these: Plasmodium falciparum.
From the text: as §2, §3

A further data set has as its system Dd2 PfATP4 NITD609. In words: [3H]-hypoxanthine incorporation assay, Dd2 PfATP4 NITD609 resistant. In kind it is cell-based. The conditions noted are these: Plasmodium falciparum. The procedure: as §1
The subject of the next data set is Cpd 4 Unpublished Target. Put plainly: [3H]-hypoxanthine incorporation assay, Cpd 4 Unpublished Target resistant. In kind it is cell-based. The conditions noted are these: Plasmodium falciparum. The procedure:
as §1

Another data set deals with Dd2 DHODH DSM265. In words: [3H]-hypoxanthine incorporation assay, Dd2 DHODH DSM265 resistant. The class given is cell-based. Conditions: Plasmodium falciparum. The procedure:
as §1

A further data set deals with Dd2 PI4K Cpd 1. Put plainly: [3H]-hypoxanthine incorporation assay, Dd2 PI4K Cpd 1 resistant. In kind it is cell-based. Conditions: Plasmodium falciparum. The procedure:
as §1

Setting [3] is: 10 mg kg-1, one compartment POPK model.
Setting [4] is: 30 mg kg-1, one compartment POPK model.

Molecules are shown by their SMILES. Values after ≈ are worked out from the molar mass of the structure shown. A value given as a limit tells only on which side of the number the result lay.

For the compound `CCc1ccc(Nc2ncc(N3CCN(C)CC3)c(N3CCCC3)n2)cc1` [compound 1], the IC50 is 150 nM in data set [1] and 3.7 µM against hERG. In addition, the solubility in the data set “Solubility” is 10 µM (≈ 3.67 µg/mL).
For the compound `Cc1nc(Nc2ncc(N3CCNC(C)C3)c(Nc3cc(C)n(C)n3)n2)cc(C2CC2)c1F.Cl.Cl` (stereo not shown) [compound 9, N2-(4-cyclopropyl-5-fluoro-6-methylpyridin-2-yl)-N4-(1,5-dimethyl-1H-pyrazol-3-yl)-5-(3-methylpiperazin-1-yl)pyrimidine-2,4-diamine dihydrochloride], the IC50 is 11 nM in the data set on PfATP4 Cpd 3; 14 nM in data set [1]; 11 nM in the data set on PfATP4 Cpd 2; 10 nM in the data set on Dd2 bc-1 ELQ-300; 6 nM with Dd2; 28.1 ± 8 nM in the data set on Pf W2. The IC50 in the data set on Pf NF54 was determined as 18.5 ± 5 nM; in the data set on Pf DD2, 19.6 ± 7 nM; in the data set on Pf K1, 33.8 ± 5 nM; in the data set on Pf SB1, 25.6 ± 13 nM; in the data set with Pf 7G8, 26.5 ± 5 nM; with Dd2 PfATP4 NITD609 it was 8.6 nM. In addition, the figures for the IC50 in the data set on Cpd 4 Unpublished Target, in the data set on Dd2 DHODH DSM265 and in the data set on Dd2 PI4K Cpd 1 were 9.4 nM, 9.1 nM and 10 nM, respectively. For the same compound, the “improvement in Pf potency” value in [1] (compound 9 relative to compound 7) is > 10 fold. Also, the Ka in data set [2] (setting [3]) was found to be 0.29 h⁻¹; in data set [2] (setting [4]), 0.62 h⁻¹. The V/F was determined as 53 L/kg in [2] (setting [4]) and 70 L/kg in data set [2] (compound 9, 10 mg kg-1, one compartment POPK model). Besides, the CL/F in [2] (setting [3]) was 122 mL/min/kg; in data set [2] (setting [4]) it was 117 mL/min/kg. In [2] (metabolite, Fixed), the CLm was 80 L/h/kg. The Ke0m in [2] (metabolite, Fixed) is 0.06 h⁻¹. Moreover, the Vcm in [2] (metabolite, Fixed) came to 29 L/kg. The “Kkill (maximum kill rate constant)” value with Pf3D7^0087/N9 (PK-PD model for compound 9 alone) came out at 0.2 h⁻¹. Further, the EC50 in the data set on Pf3D7^0087/N9 (Plasmodium falciparum, in Mus musculus, read-out: EC50 (blood concentration for half-maximal kill rate)) was 309 nM. Besides, the Kkillm in the data set on Pf3D7^0087/N9 (metabolite, Fixed) is 0.2 h⁻¹.

As a reminder, the IC50 is the concentration that gives 50% inhibition. High values mean lower potency, low ones higher potency. Broadly, the solubility is how much of the substance goes into solution per volume. High values mean a readily soluble substance, low ones a poorly soluble substance. In general, CL/F refers to clearance divided by bioavailability, as obtained after extravascular dosing.
